# Reference: PubChem BioAssay AID2060484 (Molecular Pharmacology Branch, DTP, NCI, 2025)
# Where “and” joins values, the source holds several entries; their conditions need not be identical. Equal values may be shown once.
# Test system: SUM149PT spheroids with HUVEC/MSC, viability
# Experiment: Anticancer human tumor SUM149PT cell line growth inhibition [GQUAD];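 note: spheroids exposed to drugs for seven days before readout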;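 for viability, T/C: percent viability relative to DMSO vehicle control taken as 100%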
# Settings: for viability, T/C: stronger effect = lower value
# Excerpt: DNA G-quadruplex Stabilizer Agents in Combinations in Complex Spheroids
# A high-throughput screen of multi-cell type tumor spheroids was designed to identify active combinations of DNA G-quadruplex stabilizer agents and targeted small molecules. Complex spheroids include a stromal component modeled by human endothelial cells (HUVEC) and fibroblasts modeled by human mesenchymal stem cells (MSCs). The concentration ranges selected for each drug and investigational agent were based upon clinically achievable concentrations if the clinical Cmax of the agent was known.
# Compounds. The drugs and investigational agents: pidnarulex (CX-5461; NSC782164), APTO-253 (NSC789042), BRACO-19 (NSC847499), peposertib (NSC802822), ceralasertib (NSC780249), elimusertib (NSC800525), camonsertib (NSC841442), AZD-1390 (NSC803789), olaparib (NSC753686), talazoparib (NSC767125), ART-558 (NSC835418), sotorasib (NSC818433), MRTX-1133 (NSC836407), SN-38 (NSC673596), topotecan (NSC609699), etoposide (NSC141540), doxorubicin (NSC123127), gemcitabine (NSC613327), 5-fluorouracil (NSC19893), paclitaxel (NSC125973), vemurafenib (NSC761431), panobinostat (NSC761190), R-306465 (JNJ-16241199; NSC773264), adavosertib (NSC754352), TP-3654 (NSC805149), carboplatin (NSC241240), KSQ-4279 (NSC840948), and staurosporine (NSC755774) were obtained from the National Cancer Institute (NCI) Developmental Therapeutics Program Chemical Repository (34). The FDA-approved anticancer drug set is available from the NCI Developmental Therapeutics Program. […] The stock solutions were prepared in dimethyl sulfoxide (DMSO, Sigma-Aldrich, St. Louis, MO, cat. D2650) at 800-fold the tested concentration and stored at -70 degrees C prior to their use. All drugs and investigational agents were tested over a range starting from a high concentration at or near the clinical Cmax and decreasing in half-log increments. If the clinical Cmax for an agent had not been determined, the highest concentration tested was 10 microM.
# 2.3 Cell Culture. All cells were maintained in an incubator at 37 degrees C and 5% CO2 with 95% humidity. The PDC lines were cultured according to standard operating procedures established by the NCI PDMR. All PDCs were thawed and cultured in Matrigel-coated flasks prepared with a working solution of 1X Ham's F-12 nutrient mix, without supplementation (Invitrogen, cat. 11765054), 100 U/mL penicillin-streptomycin (Invitrogen, cat. 15140122), and 2.5% Matrigel (Corning Inc., cat. 354248) for the first three passages. The 857933-349-R-J2-PDC line was cultured in 6C/Colon 1B media, which includes advanced DMEM/F-12 (Thermo Fisher Scientific, cat. 12634028), 10 mM HEPES (Thermo Fisher Scientific, cat. 15630080), 1X GlutaMAX supplement (Thermo Fisher Scientific, cat. 35050061), 0.1 mg/mL primocin (InvivoGen, cat. ant-pm-2), 10% defined fetal bovine serum, heat inactivated (HyClone Laboratories Inc., cat. SH30070.03HI), 50% L-WRN conditioned media (ATCC, cat. CRL-3276), 1.25 mM N-Acetyl-L-cysteine (Sigma-Aldrich, cat. A9165), 10 mM nicotinamide (Sigma-Aldrich, cat. N0636), 1X B-27 supplement (Thermo Fisher Scientific, cat. 17504044), 1X N-2 supplement (Thermo Fisher Scientific, cat. 17502048), 10 microM Y-27632 dihydrochloride (Tocris Bioscience, cat. 1254), and 50 ng/mL human EGF recombinant protein (Thermo Fisher Scientific, cat. PHG0311). The 485176-168-R4-J1-PDC line was cultured in Panc media, which includes all 6C/Colon 1B media components plus 100 ng/mL human FGF-10 (Thermo Fisher Scientific, cat. 100-26), 500 nM SB-431542 (Selleckchem, cat. S1067), and gastrin (Tocris, cat. 3006).
# […]
smiles,measurement,setting,value
COc1cccc2c1C(=O)c1c(O)c3c(c(O)c1C2=O)CC(O)(C(=O)CO)CC3OC1CC(N)C(O)C(C)O1 (configuration not stated),"viability, T/C",compound 0.0316 µM,89.5% and 100% and 94%
same,"viability, T/C",compound 0.1 µM,56.8% and 67.1% and 55.3%
same,"viability, T/C",compound 0.316 µM,39.5% and 52.4% and 38.2%
same,"viability, T/C",compound 1 µM,16.9% and 25.1% and 15.2%
same,"viability, T/C",compound 3.16 µM,1.91% and 4.16% and 1.88%
same,"viability, T/C",compound 10 µM,1.41% and 1.73% and 1.61%
same,IC50,curve of compound,159 nM and 270 nM and 147 nM
CCCS(=O)(=O)Nc1ccc(F)c(C(=O)c2c[nH]c3ncc(-c4ccc(Cl)cc4)cc23)c1F,"viability, T/C",compound 0.0316 µM,107% and 95.3% and 95.8%
same,"viability, T/C",compound 0.1 µM,101% and 100% and 102%
same,"viability, T/C",compound 0.316 µM,101% and 97.4% and 107%
same,"viability, T/C",compound 1 µM,97.1% and 102% and 107%
same,"viability, T/C",compound 3.16 µM,76% and 70.9% and 76.2%
same,"viability, T/C",compound 10 µM,54.1% and 46.8% and 37.6%
same,IC50,curve of compound,> 10000 nM and 8570 nM and 6910 nM
C#Cc1c(F)ccc2cc(O)cc(-c3ncc4c(N5CC6CCC(C5)N6)nc(OCC56CCCN5CC(F)C6)nc4c3F)c12 (configuration not stated),"viability, T/C",compound 0.0316 µM,92.8% and 104% and 99.7%
same,"viability, T/C",compound 0.1 µM,74.4% and 90.1% and 92.7%
same,"viability, T/C",compound 0.316 µM,58.9% and 82.1% and 77.1%
same,"viability, T/C",compound 1 µM,40.6% and 62.5% and 67.6%
same,"viability, T/C",compound 3.16 µM,37.8% and 70.5% and 53.1%
same,"viability, T/C",compound 10 µM,30.2% and 42.8% and 41.5%
CC1COCCN1c1cc(-c2ccnn2C)c2ccnc(-c3ccn[nH]3)c2n1 (configuration not stated),"viability, T/C",compound 0.0316 µM,98.3% and 92.2% and 83.5%
same,"viability, T/C",compound 0.1 µM,55.4% and 45.4% and 34.2%
same,"viability, T/C",compound 0.316 µM,26% and 26.5% and 18%
same,"viability, T/C",compound 1 µM,19.7% and 28.9% and 18.2%
same,"viability, T/C",compound 3.16 µM,25.6% and 25.3% and 21.7%
same,"viability, T/C",compound 10 µM,30% and 31.4% and 23.9%
same,IC50,curve of compound,124 nM and 89.3 nM and 69.2 nM
Cc1[nH]c2ccccc2c1CCNCc1ccc(/C=C/C(=O)NO)cc1,"viability, T/C",compound 0.000999 µM,104% and 108% and 97.7%
same,"viability, T/C",compound 0.00316 µM,106% and 89.7% and 105%
same,"viability, T/C",compound 0.00999 µM,90.3% and 107% and 101%
same,"viability, T/C",compound 0.0316 µM,94.4% and 97.2% and 110%
same,"viability, T/C",compound 0.0999 µM,92.1% and 91.4% and 106%
same,"viability, T/C",compound 0.316 µM,41.8% and 37.1% and 34.2%
same,IC50,curve of compound,264 nM and 241 nM and 244 nM
COc1cccc2c1C(=O)c1c(O)c3c(c(O)c1C2=O)CC(O)(C(=O)CO)CC3OC1CC(N)C(O)C(C)O1 (configuration not stated) + Cc1[nH]c2ccc(F)cc2c1-c1nc2c3cccnc3c3ncccc3c2[nH]1,IC50,"curve of first compound, second compound 0.0316 µM",204 nM
same,IC50,"curve of first compound, second compound 0.1 µM",203 nM
same,IC50,"curve of first compound, second compound 0.316 µM",190 nM
same,IC50,"curve of first compound, second compound 1 µM",201 nM
same,IC50,"curve of first compound, second compound 3.16 µM",171 nM
same,IC50,"curve of first compound, second compound 10 µM",145 nM
same,"viability, T/C","second compound 0.0316 µM, first compound 0.0316 µM",91.3%
same,"viability, T/C","second compound 0.0316 µM, first compound 0.1 µM",62.5%
same,"viability, T/C","second compound 0.0316 µM, first compound 0.316 µM",44.3%
same,"viability, T/C","second compound 0.0316 µM, first compound 1 µM",19.1%
same,"viability, T/C","second compound 0.0316 µM, first compound 3.16 µM",2.87%
same,"viability, T/C","second compound 0.0316 µM, first compound 10 µM",0.48%
same,"viability, T/C","second compound 0.1 µM, first compound 0.0316 µM",91.1%
same,"viability, T/C","second compound 0.1 µM, first compound 0.1 µM",62.1%
same,"viability, T/C","second compound 0.1 µM, first compound 0.316 µM",45.2%
same,"viability, T/C","second compound 0.1 µM, first compound 1 µM",16.8%
same,"viability, T/C","second compound 0.1 µM, first compound 3.16 µM",2.57%
same,"viability, T/C","second compound 0.1 µM, first compound 10 µM",1.39%
same,"viability, T/C","second compound 0.316 µM, first compound 0.0316 µM",84.3%
same,"viability, T/C","second compound 0.316 µM, first compound 0.1 µM",60.2%
same,"viability, T/C","second compound 0.316 µM, first compound 0.316 µM",43%
same,"viability, T/C","second compound 0.316 µM, first compound 1 µM",18.9%
same,"viability, T/C","second compound 0.316 µM, first compound 3.16 µM",3.58%
same,"viability, T/C","second compound 0.316 µM, first compound 10 µM",1.15%
same,"viability, T/C","second compound 1 µM, first compound 0.0316 µM",94.7%
same,"viability, T/C","second compound 1 µM, first compound 0.1 µM",61.9%
same,"viability, T/C","second compound 1 µM, first compound 0.316 µM",44.7%
same,"viability, T/C","second compound 1 µM, first compound 1 µM",19.4%
same,"viability, T/C","second compound 1 µM, first compound 3.16 µM",2.12%
same,"viability, T/C","second compound 1 µM, first compound 10 µM",1.25%
same,"viability, T/C","second compound 3.16 µM, first compound 0.0316 µM",82.6%
same,"viability, T/C","second compound 3.16 µM, first compound 0.1 µM",58.5%
same,"viability, T/C","second compound 3.16 µM, first compound 0.316 µM",40.8%
same,"viability, T/C","second compound 3.16 µM, first compound 1 µM",16.7%
same,"viability, T/C","second compound 3.16 µM, first compound 3.16 µM",4.43%
same,"viability, T/C","second compound 3.16 µM, first compound 10 µM",1.38%
same,"viability, T/C","second compound 10 µM, first compound 0.0316 µM",90.3%
same,"viability, T/C","second compound 10 µM, first compound 0.1 µM",54%
same,"viability, T/C","second compound 10 µM, first compound 0.316 µM",39.5%
same,"viability, T/C","second compound 10 µM, first compound 1 µM",15.7%
same,"viability, T/C","second compound 10 µM, first compound 3.16 µM",3.44%
same,"viability, T/C","second compound 10 µM, first compound 10 µM",0.4%
CC(C)n1c(=O)n(C)c2cnc3cc(F)c(-c4ccc(OCCCN5CCCCC5)nc4)cc3c21,"viability, T/C",compound 0.0316 µM,96.3% and 102% and 96.4%
same,"viability, T/C",compound 0.1 µM,87.4% and 89.6% and 75.7%
same,"viability, T/C",compound 0.316 µM,94.5% and 98.5% and 85.1%
same,"viability, T/C",compound 1 µM,101% and 94.2% and 96.9%
same,"viability, T/C",compound 3.16 µM,98.9% and 96.3% and 105%
same,"viability, T/C",compound 10 µM,67.4% and 66.7% and 62.4%
same,IC50,curve of compound,> 10000 nM
O=C(c1cc(Cc2n[nH]c(=O)c3ccccc23)ccc1F)N1CCN(C(=O)C2CC2)CC1,"viability, T/C",compound 0.0316 µM,92.5% and 110% and 104%
same,"viability, T/C",compound 0.1 µM,97.8% and 93.5% and 82.5%
same,"viability, T/C",compound 0.316 µM,92.7% and 102% and 99.8%
same,"viability, T/C",compound 1 µM,108% and 96.9% and 101%
same,"viability, T/C",compound 3.16 µM,106% and 108% and 97.4%
same,"viability, T/C",compound 10 µM,70.6% and 86.7% and 69.7%
same,IC50,curve of compound,> 10000 nM
Cc1cccc(N(C)C(=O)C2C(O)CCN2c2nc(C)cc(C(F)(F)F)c2C#N)c1 (configuration not stated),"viability, T/C",compound 0.0316 µM,104% and 99.7% and 111%
same,"viability, T/C",compound 0.1 µM,97.8% and 92.2% and 88.8%
same,"viability, T/C",compound 0.316 µM,82.7% and 99.5% and 103%
same,"viability, T/C",compound 1 µM,89% and 97.5% and 98.3%
same,"viability, T/C",compound 3.16 µM,102% and 110% and 105%
same,"viability, T/C",compound 10 µM,103% and 108% and 100%
same,IC50,curve of compound,> 10000 nM
